One assay concerns Pseudomonas fluorescens. Put plainly: MIC/MBC by broth dilution, pure ILs. It is filed as cell-based. The conditions noted are these: 24 h. From the text:
(§1) Within the Di3A (Dipartimento di Agricoltura, Alimentazione e Ambiente, University of Catania, Italy) microbial collection, two Gram-negative strains (Escherichia coli and Pseudomonas fluorescens) and one Gram-positive strain (Listeria monocytogenes) were studied in order to define the potential efficacy of ionic liquids in relation to the different structure of the bacterial cell wall.
(§2) For the pure ILs, the minimal inhibitory concentration (MIC) and minimal bactericidal concentration (MBC) were determined in Nutrient Broth (NB, Oxoid, Basingstoke, UK) medium by broth dilution method, according to the Clinical and Laboratory Standards Institute (CLSI).
All the bacterial strains were individually grown for 24 h at 35 or 27 °C for P. fluorescens, with shaking. After the incubation period, the cells were collected by centrifugation and re-suspended in sterile NB to obtain a stock culture of 10^9 CFU/mL. […]
(§3) Tubes were incubated at 35 or 27 °C in an orbital shaker and evaluated for the viable count of E. coli, P. fluorescens, and L. monocytogenes after 24 h by spread-plating 100 µL of each suspension on Nutrient Agar (NA, Oxoid, Basingstoke, UK) incubated for 24–48 h at 35 or 27 °C.
(§4) In this study, MIC and MBC are expressed in both µg/mL and µM to make the comparison with the literature data easy. Each experiment was performed in triplicate.

A further assay deals with MCF7 cancer cells. In words: Direct cytotoxicity test of IL powders, Alamar blue assay. Particulars: 24 h of incubation. It is filed as cell-based, human. The procedure: (§5) Cytotoxicity studies on IL powders were carried out using human dermal fibroblast (HDF) cells (Sigma-Aldrich) and a human breast cancer cell line (MCF7). In addition, ILs loaded in PVC polymer substrates were tested for their cytocompatibility and adhesion properties on the HDF. HDF cells were cultured in 75 cm^2 cell culture flask in Dulbecco’s Modified Eagle’s Medium (DMEM) supplemented with 20% Foetal Bovine Serum (FBS), 1% non-essential amino acid (NEAA), antibiotic solution (streptomycin 100 µg/mL and penicillin 100 U/mL, Sigma Aldrich) and 2 mM L-glutamine. MCF7 cells were grown in DMEM with 10% FBS and the same antibiotics as mentioned above. The cells were maintained in a culture at 37 °C, with 5% CO2 and 95% humidity to achieve a confluent layer. Control cells were cultured in a complete medium without any compounds in tissue culture plates. Before biological testing, the samples were sterilised using a UV light for 2 h.
(§6) A direct cytotoxicity test was used to assess the in vitro cytotoxicity of IL powders. IL powders with different alkyl chains were dissolved in DMEM media to obtain solutions at various concentrations (0.5–1–5 and 10 µg/mL) to determine the best formulation.
(§7) After 24 h of incubation of IL solutions (200 µL) with seeded cells under specific environmental conditions (T = 37 °C, HR = 95%, CO2 = 5%), cell viability was tested using the Alamar blue assay (AbD Serotec, Milan, Italy) following the manufacturer’s instructions.
(§8) In summary, each well received a 200 µL aliquot of Alamar Blue^TM diluted 1:10 in phenol red-free medium and was incubated for 4 h at 37 °C, 5% CO2. Following this, 100 µL of the solution was transferred to a 96-well plate for colorimetric analysis. Wells with no cells were included to account for any background interference from the redox indicator. Optical density was immediately measured using a spectrophotometer (Victor X3, Perkin Elmer, Waltham, MA, USA) at 560 and 595 nm wavelengths. The results were presented as a percentage of cell viability compared to that of the control (cells grown on tissue culture plates).
(§9) Here, the antitumor activity and cytotoxicity of the synthetised imidazolium-based ionic liquids have been determined for breast cancer cells (MCF-7) and healthy human fibroblast (HDF) cells. […] Table 5 reports the IC50 values in µg/mL and µM to make their comparison with the literature data easy.

The subject of a further assay is HDF cells. Described as above. It is filed as cell-based, human. The conditions noted are these: 24 h of incubation. The method, then: as §5, §6, §7, §8, §9
The next assay concerns Escherichia coli. Put plainly: MIC/MBC by broth dilution, pure ILs. Format: cell-based. The conditions noted are these: 24 h.
Description: as §1, §2
(§10) All the bacterial strains were individually grown for 24 h at 35 or 27 °C for P. fluorescens, with shaking. After the incubation period, the cells were collected by centrifugation and re-suspended in sterile NB to obtain a stock culture of 10^9 CFU/mL.
(§11) Tubes containing 5 mL of NB with decreasing concentrations of ILs (1000, 500, 250, 125, 50, 25, 12.5, 5 and 0 µg/mL) were inoculated with each bacterial stock culture at a final concentration of 10^6 CFU/mL.
as §3, §4

The next assay has as its system Listeria monocytogenes. In words: MIC/MBC by broth dilution, pure ILs. Format: cell-based. Particulars: 24 h.
Description: as §1, §2, §10, §11, §3, §4

Where [1] appears, read: NI = no inhibition at IL maximum concentration used (1000 µM), read-out: MBC.
[2] abbreviates: NI = no inhibition at IL maximum concentration used (1000 µM), read-out: MIC.

Results on four molecules are retold here after publication PMC11125126, “Synthesis, Characterisation, and In Vitro Evaluation of Biocompatibility, Antibacterial and Antitumor Activity of Imidazolium Ionic Liquids” (Pharmaceutics, 2024).

The structures appear in SMILES notation. Read-outs that look alike come from different tables or passages of the source.

Consider `CCCCCCCCCCCCCC[n+]1ccn(C)c1.COC(=O)c1cc(C(=O)OC)cc(S(=O)(=O)[O-])c1` [C14mimDMSIP], for which the MBC in the assay with Pseudomonas fluorescens (10^6 CFU/mL) amounted to 69.09 µg/mL; in the assay with Pseudomonas fluorescens (setting [1]), 125 µM; in the assay on Escherichia coli (10^6 CFU/mL) it was 27.64 µg/mL; in the assay with Escherichia coli (setting [1]), 50 µM; against Listeria monocytogenes (10^6 CFU/mL) it was 69.09 µg/mL; in the assay on Listeria monocytogenes (setting [1]), 125 µM. Besides, the MIC is 27.64 µg/mL in the assay on Pseudomonas fluorescens (10^6 CFU/mL); 50 µM in the assay on Pseudomonas fluorescens (setting [2]); 13.82 µg/mL against Escherichia coli (10^6 CFU/mL); 25 µM in the assay with Escherichia coli (setting [2]); 27.64 µg/mL with Listeria monocytogenes (10^6 CFU/mL); 50 µM in the assay with Listeria monocytogenes (setting [2]). Further, the “IC50 MCF7” value in the assay on MCF7 cancer cells (n = 3) stood at 2.91 µg/mL. Besides, the IC50 was 5.22 µM in the assay with MCF7 cancer cells (n = 3, mean ± SD) and 10.1 µM in the assay with HDF cells (n = 3). The “IC50 HDF” value with HDF cells (n = 3, mean ± SD) is 5.56 ± 0.04 µg/mL.
On to `CCCCCCCCCCCCCCCC[n+]1ccn(C)c1.COC(=O)c1cc(C(=O)OC)cc(S(=O)(=O)[O-])c1` [C16mimDMSIP], for which the MBC in the assay on Pseudomonas fluorescens (10^6 CFU/mL) is listed as 145.19 µg/mL; in the assay on Pseudomonas fluorescens (setting [1]) it was 250 µM; in the assay with Escherichia coli (10^6 CFU/mL), 72.60 µg/mL; with Escherichia coli (setting [1]), 125 µM; against Listeria monocytogenes (10^6 CFU/mL), 72.60 µg/mL; in the assay with Listeria monocytogenes (setting [1]), 125 µM. Moreover, the MIC was found to be 145.19 µg/mL in the assay on Pseudomonas fluorescens (10^6 CFU/mL); 250 µM in the assay with Pseudomonas fluorescens (setting [2]); 72.60 µg/mL with Escherichia coli (10^6 CFU/mL); 125 µM in the assay on Escherichia coli (setting [2]); 29.04 µg/mL against Listeria monocytogenes (10^6 CFU/mL); 50 µM in the assay on Listeria monocytogenes (setting [2]). Also, the “IC50 MCF7” value in the assay on MCF7 cancer cells (n = 3) amounted to 3.84 µg/mL. Also, the IC50 was 6.61 µM in the assay on MCF7 cancer cells (n = 3, mean ± SD) and 9.57 µM in the assay on HDF cells (n = 3). Also, the “IC50 HDF” value with HDF cells (n = 3, mean ± SD) amounted to 5.56 ± 0.04 µg/mL.
As for `CCCCCCCCCCCCCC[n+]1ccn(C)c1.F[B-](F)(F)F` [C14mimBF4], the MBC in the assay with Pseudomonas fluorescens (10^6 CFU/mL, read-out: MBC) turned out to be 45.8 µg/mL; with Pseudomonas fluorescens (setting [1]) it was 125 µM; in the assay on Escherichia coli (10^6 CFU/mL, read-out: MBC) it was 9.16 µg/mL; with Escherichia coli (setting [1]), 25 µM; in the assay on Listeria monocytogenes (10^6 CFU/mL, read-out: MBC), 4.58 µg/mL; in the assay with Listeria monocytogenes (setting [1]) it was 12.5 µM. The MIC turned out to be 9.16 µg/mL with Pseudomonas fluorescens (10^6 CFU/mL, read-out: MIC); 25 µM in the assay with Pseudomonas fluorescens (setting [2]); 4.58 µg/mL in the assay on Escherichia coli (10^6 CFU/mL, read-out: MIC); 12.5 µM in the assay with Escherichia coli (setting [2]); 4.58 µg/mL in the assay with Listeria monocytogenes (10^6 CFU/mL, read-out: MIC); 12.5 µM with Listeria monocytogenes (setting [2]). Further, the IC50 was 4.41 µg/mL in the assay on MCF7 cancer cells (Homo sapiens, n = 3); 12.1 µM in the assay with MCF7 cancer cells (Homo sapiens, n = 3, mean ± SD); 10.3 µM with HDF cells (Homo sapiens, n = 3); 3.78 ± 0.17 µg/mL in the assay on HDF cells (Homo sapiens, n = 3, mean ± SD).
Turning to `CCCCCCCCCCCCCCCC[n+]1ccn(C)c1.F[B-](F)(F)F` [C16mimBF4], the MBC in the assay on Pseudomonas fluorescens (10^6 CFU/mL, read-out: MBC) was found to be 98.6 µg/mL; with Pseudomonas fluorescens (setting [1]), 250 µM; with Escherichia coli (10^6 CFU/mL, read-out: MBC), 49.3 µg/mL; with Escherichia coli (setting [1]) it was 125 µM; in the assay on Listeria monocytogenes (10^6 CFU/mL, read-out: MBC), 98.6 µg/mL; in the assay with Listeria monocytogenes (setting [1]), 250 µM. Further, the MIC was 49.3 µg/mL with Pseudomonas fluorescens (10^6 CFU/mL, read-out: MIC); 125 µM in the assay with Pseudomonas fluorescens (setting [2]); 9.86 µg/mL in the assay on Escherichia coli (10^6 CFU/mL, read-out: MIC); 25 µM with Escherichia coli (setting [2]); 19.7 µg/mL with Listeria monocytogenes (10^6 CFU/mL, read-out: MIC); 50 µM with Listeria monocytogenes (setting [2]). Further, the IC50 is 1.64 µg/mL in the assay on MCF7 cancer cells (Homo sapiens, n = 3); 4.16 µM with MCF7 cancer cells (Homo sapiens, n = 3, mean ± SD); 20.9 µM in the assay on HDF cells (Homo sapiens, n = 3); 8.26 ± 0.03 µg/mL in the assay with HDF cells (Homo sapiens, n = 3, mean ± SD).
